Measured values taken from US3984431A, “Derivatives of pyrazole-5-acetic acid” (priority 1972, dated 1976).
Where two headings read alike, the source gives them in different places.

Key:
[1] = system: Brewer's yeast induced pyrexia; experiment: Antipyretic action: Brewer's yeast induced pyrexia (Bianchi); type: in vivo, rat; settings: read-out: 50% effective dose
Source text: Antipyretic action was established on the pyretic rat by the Bianchi method.
(§1) In all cases the products of the invention are compared to the following reference substances, aspirin, phenylbutazone, indomethacine.

[2] = system: Carragheen induced oedema; experiment: Anti-inflammatory action: carragheen induced oedema (Winter); type: in vivo, rat; settings: read-out: 50% effective dose
Source text: 1. Carragheen induced odema; method of Winter Arch. intern.
as §1

[3] = system: Pain (cramp) caused by acetic acid; experiment: Analgesic action: pain (cramp) caused by acetic acid in the mouse (Siegmund); type: in vivo; settings: for ED50: sc, read-out: 50% effective dose
Protocol: The analgesic action was tested in relation to the pain caused in the mouse by the subcutaneous injection of acetic acid.
as §1

[4] = system: Ultra-violet induced erythema; experiment: Anti-inflammatory action: ultra-violet induced erythema (Winter); type: in vivo, guinea-pig; settings: Cavia porcellus, read-out: 50% effective dose
Source text: 2. Ultra-violet induced erythema; method of Winter Arch. intern.
as §1

[5] = Overall appraisal of anti-inflammatory, antipyretic and analgesic tests versus reference substances; type: in vivo; settings: for overall activity compared with example 5 (in words): compared to example 5; for overall activity compared with phenylbutazone (in words): compared to phenylbutazone
Protocol: 1. Carragheen induced odema; method of Winter Arch. intern. Pharmacod. volume 112, page 174 (1957)
2. Ultra-violet induced erythema; method of Winter Arch. intern. Pharmacod. volume 114, page 261 (1958)
3. The formation of granulomae caused by the sub-cutaneous implantation of pellets of cotton in the rat; method of Winter Journal of the American Pharmaceutical Association, Science Edition, Volume 46, page 515 (1957)
The analgesic action was tested in relation to the pain caused in the mouse by the subcutaneous injection of acetic acid. Method based upon that of Siegmund, Proceedings of the Society of Experimental Biology and Medicine, volume 75, page 729 (1957)
Antipyretic action was established on the pyretic rat by the Bianchi method. Arzneimittel Forschung, volume 17, page 246 (1967)
as §1

Cotton pellet granulema = experiment: Anti-inflammatory action: cotton pellet granuloma (Winter); type: in vivo, rat; settings: read-out: 50% effective dose
Source text: as §1

[6] = rat, oral administration, sub-cutaneous implantation of cotton pellets
[7] = mouse, acetic acid injected subcutaneously
[8] = guinea-pig, oral administration

Row | SMILES | ED50 ([1]; Rattus norvegicus) [mg/kg] | ED50 ([2]; Rattus norvegicus, po) [mg/kg] | ED50 ([3]; Mus musculus) [mg/kg] | ED50 ([4]; po) [mg/kg] | ED50 ([1]; pyretic rat) [mg/kg] | ED50 ([2]; rat, oral administration) [mg/kg] | overall activity compared with example 5 (in words) [5] | ED50 (Cotton pellet granulema; [6]) [mg/kg] | ED50 [3, 7] [mg/kg] | ED50 [4, 8] [mg/kg] | overall activity compared with phenylbutazone (in words) [5] | overall activity compared with indomethacine (in words) ([5]; compared to indomethacine) | anti-inflammatory and anti-pyretic activity (in words) ([5]; from the table) | analgesic effect (in words) ([3]; from the table) | ED50 (Cotton pellet granulema; Rattus norvegicus, po) [mg/kg]
1 | CC(=O)Oc1ccccc1C(=O)O [ASPIRIN, aspirin, reference compound] | 30 | 180 | 130 | 50 | – | – | – | – | – | – | – | – | – | – | –
2 | O=C(O)Cc1c(-c2ccccc2)c(-c2ccccc2)nn1Cc1ccccc1 [Example 1, 1-benzyl-3,4-diphenylpyrazolyl-5-acetic acid] | – | – | – | – | 1 | 60 | active substances, although slightly less so than example 5 | 80 | 150 | 1.6 | – | – | – | – | –
3 | CC(C)Cn1nc(-c2ccccc2)c(-c2ccccc2)c1CC(=O)O [Example 3, 1-isobutyl-3,4-diphenylpyrazolyl-5-acetic acid] | – | – | – | – | 0.5 | 30 | active substances, although slightly less so than example 5 | 18 | 180 | 1 | still more powerful than phenylbutazone | – | – | – | –
4 | O=C(O)Cc1c(-c2ccccc2)c(-c2ccccc2)nn1-c1ccccc1 [Example 5, 1,3,4-triphenylpyrazolyl-5-acetic acid] | – | – | – | – | 0.6 | 14 | – | 6 | 90 | 3 | much more powerful than phenylbutazone | at least equivalent to indomethacine | powerful anti-inflammatory and anti-pyretic agent | marked analgesic effect | –
5 | COc1ccc2c(c1)c(CC(=O)O)c(C)n2C(=O)c1ccc(Cl)cc1 [INDOMETHACINE, indomethacine, reference compound] | 1.3 | 14 | 5.5 | 1.5 | – | – | – | – | – | – | – | – | – | – | 8
6 | CCCCC1C(=O)N(c2ccccc2)N(c2ccccc2)C1=O [PHENYLBUTAZONE, phenylbutazone, reference compound] | – | – | – | – | 10 | 120 | – | 200 | 110 | 8.5 | – | – | – | – | –
